Experimental data: the NIST ThermoML archive (doi:10.1021/je050021e)
± gives the expanded uncertainty stated by the source.

What was measured:
[1] = xn = mol fraction of the nth substance listed; details: Liquid, x2 = 0
[2] = Liquid

Structure (SMILES): O [water] + COCCOCCOCCOC
- viscosity ([1]; 303.15 K, 101 kPa): 0.89 ± 0.022 mPa·s
- viscosity ([1]; 313.15 K, 101 kPa): 0.6531 ± 0.017 mPa·s
- viscosity ([1]; 323.15 K, 101 kPa): 0.547 ± 0.015 mPa·s
- mass density ([1]; 323.15 K, 101.3 kPa): 988.04 ± 0.09 kg/m3
- viscosity ([1]; 333.15 K, 101 kPa): 0.466 ± 0.013 mPa·s
- mass density ([1]; 333.15 K, 101.3 kPa): 983.12 ± 0.09 kg/m3
- viscosity ([1]; 343.15 K, 101 kPa): 0.4049 ± 0.011 mPa·s
- mass density ([1]; 343.15 K, 101.3 kPa): 977.77 ± 0.09 kg/m3

Structure (SMILES): O [water] + CC(=O)N1CCOCC1
- viscosity ([1]; 298.15 K, 101 kPa): 0.8903 ± 0.029 mPa·s
- viscosity ([1]; 303.15 K, 101 kPa): 0.7976 ± 0.026 mPa·s
- viscosity ([1]; 313.15 K, 101 kPa): 0.6531 ± 0.022 mPa·s
- mass density ([1]; 323.15 K, 101 kPa): 988.04 ± 0.53 kg/m3
- viscosity ([1]; 323.15 K, 101 kPa): 0.547 ± 0.019 mPa·s
- mass density ([1]; 333.15 K, 101 kPa): 983.12 ± 0.53 kg/m3
- viscosity ([1]; 333.15 K, 101 kPa): 0.466 ± 0.017 mPa·s
- mass density ([1]; 343.15 K, 101 kPa): 977.77 ± 0.52 kg/m3
- viscosity ([1]; 343.15 K, 101 kPa): 0.4049 ± 0.015 mPa·s

Structure (SMILES): COCCOCCOCCOC [2,5,8,11-tetraoxadodecane]
- viscosity ([2]; 303.15 K, 101 kPa): 1.77 ± 0.04 mPa·s
- mass density ([2]; 303.15 K, 101.3 kPa): 975.86 ± 1 kg/m3
- viscosity ([2]; 313.15 K, 101 kPa): 1.48 ± 0.04 mPa·s
- mass density ([2]; 313.15 K, 101.3 kPa): 966.36 ± 0.99 kg/m3
- viscosity ([2]; 323.15 K, 101 kPa): 1.26 ± 0.03 mPa·s
- mass density ([2]; 323.15 K, 101.3 kPa): 956.85 ± 0.98 kg/m3
- viscosity ([2]; 333.15 K, 101 kPa): 1.08 ± 0.03 mPa·s
- mass density ([2]; 333.15 K, 101.3 kPa): 947.32 ± 0.97 kg/m3
- viscosity ([2]; 343.15 K, 101 kPa): 0.945 ± 0.025 mPa·s
- mass density ([2]; 343.15 K, 101.3 kPa): 937.72 ± 0.96 kg/m3

Structure (SMILES): CC(=O)N1CCOCC1 [4-acetylmorpholine]
- mass density ([2]; 298.15 K, 101 kPa): 1110.33 ± 0.61 kg/m3
- viscosity ([2]; 298.15 K, 101 kPa): 8.48 ± 0.23 mPa·s
- mass density ([2]; 303.15 K, 101 kPa): 1106 ± 0.6 kg/m3
- viscosity ([2]; 303.15 K, 101 kPa): 7.1 ± 0.2 mPa·s
- mass density ([2]; 313.15 K, 101 kPa): 1097.35 ± 0.6 kg/m3
- viscosity ([2]; 313.15 K, 101 kPa): 5.18 ± 0.15 mPa·s
- mass density ([2]; 323.15 K, 101 kPa): 1088.74 ± 0.59 kg/m3
- viscosity ([2]; 323.15 K, 101 kPa): 3.96 ± 0.12 mPa·s
- mass density ([2]; 333.15 K, 101 kPa): 1080.14 ± 0.59 kg/m3
- viscosity ([2]; 333.15 K, 101 kPa): 3.12 ± 0.1 mPa·s
- mass density ([2]; 343.15 K, 101 kPa): 1071.55 ± 0.58 kg/m3
- viscosity ([2]; 343.15 K, 101 kPa): 2.55 ± 0.08 mPa·s
